Molecular target: Sperm whale WT Mb (myoglobin, Mb) (Physeter macrocephalus, UniProt P02185, F44H/H65A)
Experiment: biochemical

Sequence of Sperm whale WT Mb (myoglobin, Mb) (P02185 2-154 F44H/H65A): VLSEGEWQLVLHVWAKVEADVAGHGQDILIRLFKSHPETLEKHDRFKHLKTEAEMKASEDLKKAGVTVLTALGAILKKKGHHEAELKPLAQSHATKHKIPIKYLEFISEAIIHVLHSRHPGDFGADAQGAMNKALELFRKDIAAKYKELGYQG

SMILES: CN(C)c1ccc(C(=C2C=CC(=[N+](C)C)C=C2)c2ccccc2)cc1 [MG, malachite green]
- Kd: 474 µM

Reference: publication PMC9029994 (RSC Advances, 2021)
